Measured values as given in publication PMC9008208 (Frontiers in Cellular Neuroscience, 2022).

Key:
α9α10 nAChR = biological target: T1, α9α10 nAChR (Homo sapiens, UniProt Q9GZZ6+Q9UGM1); assay: two-electrode voltage clamp, Xenopus oocytes, concentration-response (partial agonist); type: cell-based
T1 construct: gene CHRNA9; with nAChR subunit α10 (CHRNA10)

α9 nAChR = biological target: T2, α9 nAChR (Homo sapiens, UniProt Q9UGM1); assay: as above; type: cell-based
T2 construct: gene CHRNA9
T2 sequence (Q9UGM1 23-479): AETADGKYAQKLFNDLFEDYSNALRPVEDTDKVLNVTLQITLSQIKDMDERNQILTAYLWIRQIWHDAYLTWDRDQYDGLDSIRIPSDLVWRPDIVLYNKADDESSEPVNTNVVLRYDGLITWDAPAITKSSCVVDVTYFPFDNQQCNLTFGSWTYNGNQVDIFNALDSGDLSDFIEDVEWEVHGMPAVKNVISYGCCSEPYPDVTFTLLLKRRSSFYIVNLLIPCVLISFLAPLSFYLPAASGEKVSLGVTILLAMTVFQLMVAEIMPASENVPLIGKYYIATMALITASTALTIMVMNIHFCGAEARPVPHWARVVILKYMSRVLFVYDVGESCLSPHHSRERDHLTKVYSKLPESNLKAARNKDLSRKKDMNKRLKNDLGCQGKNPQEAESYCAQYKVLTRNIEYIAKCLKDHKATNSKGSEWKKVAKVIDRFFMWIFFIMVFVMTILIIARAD

T1 sequence (Q9UGM1 23-479): as above
T1 sequence (Q9GZZ6 25-450): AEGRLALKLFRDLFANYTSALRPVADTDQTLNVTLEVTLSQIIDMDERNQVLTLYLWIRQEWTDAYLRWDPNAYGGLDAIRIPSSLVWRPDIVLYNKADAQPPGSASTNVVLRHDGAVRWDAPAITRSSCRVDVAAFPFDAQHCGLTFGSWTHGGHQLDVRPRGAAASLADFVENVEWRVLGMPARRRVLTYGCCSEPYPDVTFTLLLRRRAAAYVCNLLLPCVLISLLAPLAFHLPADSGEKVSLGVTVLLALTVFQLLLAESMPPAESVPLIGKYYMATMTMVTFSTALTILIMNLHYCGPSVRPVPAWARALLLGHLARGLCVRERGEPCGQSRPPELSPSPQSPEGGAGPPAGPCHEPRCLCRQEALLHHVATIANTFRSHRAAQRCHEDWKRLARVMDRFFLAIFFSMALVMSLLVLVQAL

Question: What does the source list for CC[N+]1(CC)CCN(c2ccc(C(F)(F)F)cc2)CC1 [pCF3-diEPP]?
Answer: EC50 (α9α10 nAChR): 6.4 µM; EC50 (α9 nAChR): 7 µM
